Values quoted from earlier work, collected in patent US20030216871A1, “Calculating a characteristic property of a molecule by correlation analysis” (priority 2001, published 2003).

Columns and labels:
[1] = tested on: human tumor cells in culture; conditions: C is average IC50 from assays, values from S. P. Gupta, Chem. Review 94, 1519 (1994); cited from earlier work
[2] = experimental logP used as measured property in R matrix; cited from earlier work
[3] = organic amines, 25C, I = 0; cited from earlier work

Row | Structure (SMILES) | Experimenter value of Active Concentration (log1/C) Against Human Tumor [1] | logP [2] | pK exper [3]
1 | COC12C(COC(N)=O)C3=C(C(=O)C(C)=C(Nc4ccc(O)c(I)c4)C3=O)N1CC1NC12 (stereo not drawn) [Compound 15] | 7.76 | 1.75 | 
2 | CO[C@@]12[C@H](COC(N)=O)C3=C(C(=O)C(C)=C(NCCc4ccccn4)C3=O)N1C[C@@H]1N[C@@H]12 [Compound 6] | 7.38 | 1.23 | 
3 | COC12C(COC(N)=O)C3=C(C(=O)C(C)=C(OCCOc4ccccc4)C3=O)N1CC1NC12 (stereo not drawn) [Compound 26] | 9.48 | 1.74 | 
4 | CO[C@@]12[C@H](COC(N)=O)C3=C(C(=O)C(C)=C(Nc4ccc([N+](=O)[O-])cc4)C3=O)N1C[C@@H]1N[C@@H]12 [Compound 14] | 9.07 | 1.02 | 
5 | COC12C(COC(N)=O)C3=C(C(=O)C(C)=C(Nc4ccc(O)c([N+](=O)[O-])c4)C3=O)N1CC1NC12 (stereo not drawn) [Compound 16] | 7.71 | 0.51 | 
6 | COC12C(COC(N)=O)C3=C(C(=O)C(C)=C(OC4CC4)C3=O)N1CC1NC12 (stereo not drawn) [Compound 21] | 9.2 | 0.83 | 
7 | CO[C@@]12[C@H](COC(N)=O)C3=C(C(=O)C(C)=C(Nc4ccc5[nH]ccc5c4)C3=O)N1C[C@@H]1N[C@@H]12 [Compound 17] | 8.75 | 2.45 | 
8 | COC12C(COC(N)=O)C3=C(C(=O)C(C)=C(Nc4cc[nH]n4)C3=O)N1CC1NC12 (stereo not drawn) [Compound 19] | 7.38 | 0.56 | 
9 | COC12C(COC(N)=O)C3=C(C(=O)C(C)=C(OCC4CCC4)C3=O)N1CC1NC12 (stereo not drawn) [Compound 23] | 9.66 | 2.47 | 
10 | COC12C(COC(N)=O)C3=C(C(=O)C(C)=C(Nc4ccc(O)cc4)C3=O)N1CC1NC12 (stereo not drawn) [Compound 13] | 7.88 | 0.63 | 
11 | COC12C(COC(N)=O)C3=C(C(=O)C(C)=C(Nc4ccc(Br)cc4)C3=O)N1CC1NC12 (stereo not drawn) [Compound 10] | 8.72 | 2.16 | 
12 | COC12C(COC(N)=O)C3=C(C(=O)C(C)=C(Nc4ccccc4)C3=O)N1CC1NC12 (stereo not drawn) [Compound 7] | 8.78 | 1.3 | 
13 | COC12C(COC(N)=O)C3=C(C(=O)C(C)=C(Nc4nc(C)cs4)C3=O)N1CC1NC12 (stereo not drawn) [Compound 18] | 8.69 | 1.52 | 
14 | CO[C@@]12[C@H](COC(N)=O)C3=C(C(=O)C(C)=C(N)C3=O)N1C[C@@H]1N[C@@H]12 [Compound 1] | 7.7 |  | 
15 | CO[C@@]12[C@H](COC(N)=O)C3=C(C(=O)C(C)=C(OCC4CC4)C3=O)N1C[C@@H]1N[C@@H]12 [Compound 22] | 9.43 |  | 
16 | COC12C(COC(N)=O)C3=C(C(=O)C(C)=C(OCc4ccccc4)C3=O)N1CC1NC12 (stereo not drawn) [Compound 24] | 9.21 | 1.94 | 
17 | COC12C(COC(N)=O)C3=C(C(=O)C(C)=C(Nc4ccc(N)cc4)C3=O)N1CC1NC12 (stereo not drawn) [Compound 8] | 7.83 | 0.07 | 
18 | COC12C(COC(N)=O)C3=C(C(=O)C(C)=C(Nc4ccc(I)cc4)C3=O)N1CC1NC12 (stereo not drawn) [Compound 12] | 8.77 | 2.42 | 
19 | NC1C=CCCC1 (stereo not drawn) [Compound 95] |  |  | 10.42
20 | COCCOCCOC1=C(C)C(=O)C2=C(C1=O)[C@@H](COC(N)=O)[C@@]1(OC)[C@H]3N[C@H]3CN21 [Compound 28] | 8.24 | −0.46 | 
21 | CO[C@@]12[C@H](COC(N)=O)C3=C(C(=O)C(C)=C(OCCOCCO)C3=O)N1C[C@@H]1N[C@@H]12 [Compound 27] | 7.32 | −1.08 | 
22 | CC1=CCCCC1N (stereo not drawn) [Compound 96] |  |  | 10.37
23 | C#CCNC1=C(C)C(=O)C2=C(C1=O)C(COC(N)=O)C1(OC)C3NC3CN21 (stereo not drawn) [Compound 3] | 8.46 | 0.24 | 
24 | COC12C(COC(N)=O)C3=C(C(=O)C(C)=C(Nc4cccc(I)c4)C3=O)N1CC1NC12 (stereo not drawn) [Compound 11] | 8.9 | 2.42 | 
25 | COC12C(COC(N)=O)C3=C(C(=O)C(C)=C(OCCO)C3=O)N1CC1NC12 (stereo not drawn) [Compound 25] | 8.31 | −1.1 | 
26 | COC1=C(C)C(=O)C2=C(C1=O)[C@@H](COC(N)=O)[C@@]1(OC)[C@H]3N[C@H]3CN21 [Compound 20] | 9.52 | 0.26 | 
